In patent US20120010173A1 (SEPS PHARMA N.V., priority 2009, published 2012):

Assays:
[1] = Chemical stability in pharmaceutical solvents (weight % remaining in solution, LCMS); assay type: physicochemical
Description: Table 4 provides the chemical stability data in some pharmaceutical solvents, expressed as the weight percentage (% w/w) of the final fosfluconazole derivative produced and characterized in example 1 that remained in solution after a certain period of time. The test was carried out twice, and the remaining weight % was determined by Liquid Chromatography-Mass Spectrometry (LCMS).
Table 5 provides the chemical stability data in some pharmaceutical solvents at 25° C., expressed as the weight percentage (% w/w) of the final fosfluconazole derivative produced and characterized in example 2 that remained in solution after a certain period of time. The test was carried out twice, and the remaining weight % was determined by Liquid Chromatography-Mass Spectrometry (LCMS).
Table 6 provides the chemical stability data in some pharmaceutical solvents at 25° C., expressed as the weight percentage (% w/w) of the final fosfluconazole derivative produced and characterized in example 3 that remained in solution after a certain period of time. The test was carried out twice, and the remaining weight % was determined by Liquid Chromatography-Mass Spectrometry (LCMS).
Table 7 provides the chemical stability data in some pharmaceutical solvents, expressed as the weight percentage (% w/w) of the final fosfluconazole derivative produced and characterized in example 4 that remained in solution after a certain period of time. The test was carried out twice, and the remaining weight % was determined by Liquid Chromatography-Mass Spectrometry (LCMS).
Table 8 provides the chemical stability data in some pharmaceutical solvents, expressed as the weight percentage (% w/w) of the final fosfluconazole derivative produced and characterized in example 5 that remained in solution after a certain period of time. The test was carried out twice, and the remaining weight % was determined by Liquid Chromatography-Mass Spectrometry (LCMS).
Table 9 provides the chemical stability data in some pharmaceutical solvents, expressed as the weight percentage (% w/w) of the final fosfluconazole derivative produced and characterized in example 6 that remained in solution after a certain period of time. The test was carried out twice, and the remaining weight % was determined by Liquid Chromatography-Mass Spectrometry (LCMS).
Table 10 provides the chemical stability data in some pharmaceutical solvents, expressed as the weight percentage (% w/w) of the final fosfluconazole derivative produced and characterized in example 14 that remained in solution after a certain period of time. The test was carried out twice, and the remaining weight % was determined by Liquid Chromatography-Mass Spectrometry (LCMS).

[2] = Solubility of fosfluconazole derivatives in pharmaceutical solvents (Table 2); assay type: physicochemical; conditions: thermodynamic from solid
Description: The solubility determination method used was as follows: a suspension of 6 mg of the tested fosfluconazole derivative in 500 μl of the applicable pharmaceutical solvent was rotatively shaken for 24 hours at 800 rpm at 25° C. The saturated fosfluconazole derivative solution was filtered (0.45 μm) and 150 μl of the filtrate was diluted in dimethylsulfoxide (50 μl DMSO). This solution was assayed, each assay being carried out in three-fold, by measurement with Liquid Chromatography-Mass Spectrometry (LCMS, 1 μl and 10 μl injection). Standards were prepared by dissolving the corresponding fosfluconazole derivative in DMSO (1 mg/ml). To determine the solubility, four aliquots (0.5, 1, 2, 4 μl) of the standard solution were injected using the same LCMS conditions as for the above exemplary samples.

[3] = H2O/Kleptose HPB (60/40), 4 hours
[4] = H2O/Kleptose HPB (60/40), 1 day
[5] = H2O/Kleptose HPB (60/40), 2 days
[6] = H2O/Kleptose HPB (60/40), 7 days
[7] = H2O/Kleptose HPB (60/40), 14 days
[8] = aqueous with cosolvent or surfactant or cyclodextrin, H2O/Cremophor RH 40 (80/20), 25° C.
[9] = aqueous with cosolvent or surfactant or cyclodextrin, H2O/Kleptose HPB (60/40), 25° C.
[10] = aqueous with cosolvent or surfactant or cyclodextrin, H2O/Vitamin E TPGS (90/10), 25° C.
[11] = aqueous with cosolvent or surfactant or cyclodextrin, H2O/polysorbate 80 (80/20), 25° C.
[12] = oil or lipid, Miglyol 812, 25° C.
[13] = organic solvent or mixture, PEG 400, 25° C.
[14] = water (pH 2), aqueous buffer, H2O (pH = 2), 25° C.
[15] = water (pH 7), aqueous buffer, H2O (pH = 7), 25° C.
[16] = water (pH 10), aqueous buffer, H2O (pH = 10), 25° C.

Row | SMILES | weight percentage that remained in solution ([1]; H2O (pH = 2), 4 hours) | weight percentage that remained in solution ([1]; H2O (pH = 2), 1 day) | weight percentage that remained in solution ([1]; H2O (pH = 2), 2 days) | weight percentage that remained in solution ([1]; H2O (pH = 2), 7 days) | weight percentage that remained in solution ([1]; H2O (pH = 2), 14 days) | weight percentage that remained in solution ([1]; H2O (pH = 7), 4 hours) | weight percentage that remained in solution ([1]; H2O (pH = 7), 1 day) | weight percentage that remained in solution ([1]; H2O (pH = 7), 2 days) | weight percentage that remained in solution ([1]; H2O (pH = 7), 7 days) | weight percentage that remained in solution ([1]; H2O (pH = 7), 14 days) | weight percentage that remained in solution ([1]; H2O (pH = 10), 4 hours) | weight percentage that remained in solution ([1]; H2O (pH = 10), 1 day) | weight percentage that remained in solution ([1]; H2O (pH = 10), 2 days) | weight percentage that remained in solution ([1]; H2O (pH = 10), 7 days) | weight percentage that remained in solution ([1]; H2O (pH = 10), 14 days) | weight percentage that remained in solution [1, 3] | weight percentage that remained in solution [1, 4] | weight percentage that remained in solution [1, 5] | weight percentage that remained in solution [1, 6] | weight percentage that remained in solution [1, 7] | further results
1 | C[N+](C)(C)CCOP(=O)([O-])OC(Cn1cncn1)(Cn1cncn1)c1ccc(F)cc1F [Example 1, 2-(2,4-difluorophenyl)-1,3-di(1H-1,2,4-triazol-1-yl)propan-2-yl 2-(trimethylammonio)-ethyl phosphate] | 99.9 % w/w | 100.0 % w/w | 99.4 % w/w | 99.4 % w/w | 99.2 % w/w | 99.6 % w/w | 99.6 % w/w | 54.7 % w/w | 99.6 % w/w | 99.6 % w/w | 99.8 % w/w | 100.0 % w/w | 99.7 % w/w | 100.0 % w/w | 100.0 % w/w | 99.3 % w/w | 98.8 % w/w | 98.8 % w/w | 98.6 % w/w | 99.1 % w/w | weight percentage that remained in solution ([1]; PEG 400, 4 hours): 99.8 % w/w; weight percentage that remained in solution ([1]; PEG 400, 1 day): 100.0 % w/w; weight percentage that remained in solution ([1]; PEG 400, 2 days): 99.8 % w/w; weight percentage that remained in solution ([1]; PEG 400, 7 days): 99.9 % w/w; weight percentage that remained in solution ([1]; PEG 400, 14 days): 100.0 % w/w; solubility at 24 h [2, 8]: > 10000 µg/mL; solubility at 24 h [2, 9]: 4200 µg/mL; solubility at 24 h [2, 10]: 7400 µg/mL; solubility at 24 h [2, 11]: 8300 µg/mL; solubility at 24 h [2, 12]: 400 µg/mL; solubility at 24 h [2, 13]: > 10000 µg/mL; solubility at 24 h [2, 14]: > 10000 µg/mL; solubility at 24 h [2, 15]: 6800 µg/mL; solubility at 24 h [2, 16]: 7500 µg/mL
2 | CCCCCCCCCC(=O)OCCOP(=O)([O-])OC(Cn1cncn1)(Cn1cncn1)c1ccc(F)cc1F.[Na+] [Example 2, sodium 2-(decanoyloxy)ethyl 2-(2,4-difluorophenyl)-1,3-di(1H-1,2,4-triazol-1-yl)propan-2-yl phosphate] | 97.8 % w/w | 97.7 % w/w | 96.8 % w/w | 96.7 % w/w | 100.0 % w/w | 97.8 % w/w | 97.7 % w/w | 98.0 % w/w | 97.8 % w/w | 97.9 % w/w | 94.6 % w/w | 98.0 % w/w | 96.8 % w/w | 96.8 % w/w | 99.2 % w/w | 98.0 % w/w | 98.0 % w/w | 98.2 % w/w | 97.7 % w/w | 98.0 % w/w | weight percentage that remained in solution ([1]; PEG 400, 4 hours): 97.7 % w/w; weight percentage that remained in solution ([1]; PEG 400, 1 day): 97.9 % w/w; weight percentage that remained in solution ([1]; PEG 400, 2 days): 98.1 % w/w; weight percentage that remained in solution ([1]; PEG 400, 7 days): 98.0 % w/w; weight percentage that remained in solution ([1]; PEG 400, 14 days): 98.7 % w/w; solubility at 24 h [2, 8]: > 10000 µg/mL; solubility at 24 h [2, 9]: > 10000 µg/mL; solubility at 24 h [2, 10]: > 10000 µg/mL; solubility at 24 h [2, 11]: > 10000 µg/mL; solubility at 24 h [2, 12]: 5000 µg/mL; solubility at 24 h [2, 13]: > 10000 µg/mL; solubility at 24 h [2, 14]: 6900 µg/mL; solubility at 24 h [2, 15]: > 10000 µg/mL; solubility at 24 h [2, 16]: > 10000 µg/mL
3 | CCCCCCCCCOCCOP(=O)([O-])OC(Cn1cncn1)(Cn1cncn1)c1ccc(F)cc1F.[Na+] [Example 3, sodium 2-(2,4-difluorophenyl)-1,3-di(1H-1,2,4-triazol-1-yl)propan-2-yl 2-(nonyloxy)ethyl phosphate] | 94.8 % w/w | 94.6 % w/w | 95.0 % w/w | 95.0 % w/w | 95.0 % w/w | 94.8 % w/w | 94.7 % w/w | 95.0 % w/w | 94.8 % w/w | 95.1 % w/w | 94.8 % w/w | 94.8 % w/w | 95.0 % w/w | 95.0 % w/w | 95.2 % w/w | 95.0 % w/w | 94.9 % w/w | 94.7 % w/w | 95.0 % w/w | 95.2 % w/w | weight percentage that remained in solution ([1]; PEG 400, 4 hours): 95.0 % w/w; weight percentage that remained in solution ([1]; PEG 400, 1 day): 94.9 % w/w; weight percentage that remained in solution ([1]; PEG 400, 2 days): 95.0 % w/w; weight percentage that remained in solution ([1]; PEG 400, 7 days): 95.0 % w/w; weight percentage that remained in solution ([1]; PEG 400, 14 days): 95.1 % w/w; solubility at 24 h [2, 8]: > 10000 µg/mL; solubility at 24 h [2, 9]: > 10000 µg/mL; solubility at 24 h [2, 10]: > 10000 µg/mL; solubility at 24 h [2, 11]: > 10000 µg/mL; solubility at 24 h [2, 12]: 2600 µg/mL; solubility at 24 h [2, 13]: > 10000 µg/mL; solubility at 24 h [2, 14]: > 10000 µg/mL; solubility at 24 h [2, 15]: > 10000 µg/mL; solubility at 24 h [2, 16]: > 10000 µg/mL
